According to US20100249071A1, “Modulators of S1P and Methods of Making And Using” (Exelixis, Inc., priority 2009, published 2010):
Read-outs that look alike come from different tables or passages of the source.

Experiments:
S1P1 = target: T1, S1P1 (Homo sapiens, UniProt P21453); experiment: Tango β-arrestin recruitment assay in U2OS cells (Assay 2b); type: cell-based
T1 construct: host or cells: U2OS
Description: (§1) For the Tango™ β-arrestin recruitment assay, the cytoplasmic C-terminus of S1P1 was tethered to the tTA transcriptional activator with a linker that contains a cleavage site for the N1a protease from tobacco etch virus (TEV protease). The C-terminus of the human β-arrestin2 protein was fused to TEV protease. Binding of an agonist recruits the βl -arrestin-TEV fusion protein to the receptor resulting in cleavage of the linker and released of tTA to enter the nucleus and subsequently activated a tTA-dependent luciferase reporter gene.
Assay 2b: Alternatively, U2OS cells expressing the reporter gene and S1P1 (Invitrogen) were added to the wells of a 384-well white opaque bottom assay plate (PerkinElmer) at […]. The cells were serum starved for 48 h in Freestyle medium (Invitrogen). Test compounds were tested at maximum concentrations of 1 μM for the agonist assay. Compounds were diluted in DMSO (10 concentration points, 3-fold each) and added to the assay plate at a 1% final DMSO concentration. The efficacy control was 1 μM S1P (Avanti). For each compound, there were duplicate assay plates and each assay plate had duplicate wells per concentration point. The plate was incubated overnight at 37° C. The GeneBLAzer β-lactamase assay reagent (Invitrogen) was added and the plates were incubated for an additional 2 h at room temperature. Fluorescence was measured using an EnVision plate reader (PerkinElmer, Waltham, Mass.) at an excitation wavelength of 409 nm and emission wavelengths of 460 nm and 530 nm. The emission intensity at each wavelength was background subtracted against wells containing medium only and the F460 nm/F530 nm ratio determined for each concentration of the test compounds. Percent activity was calculated as [(test compound ratio−DMSO ratio)/(positive control ratio−DMSO ratio)*100], where the positive control and DMSO ratios are from cells incubated with the efficacy control 1 μM S1P and 1% DMSO, respectively. The percent activities were plotted against compound concentration to determine EC50 using XLFit (IDBS).

[1] = target: T2, hS1P1R (hEdg1) membrane protein (Homo sapiens, UniProt P21453); experiment: hS1P1R GTPγS binding assay (Assay 3a); type: biochemical
T2 construct: purchased Lonza
Experimental: Assay 3a: The hS1P1R GTPγS binding assay was carried out at room temperature in 96 well non-binding surface assay plates. The reaction in each well contained 4 μg hS1P1R (hEdg1) membrane protein (Lonza), 30 μM GDP, 0.1 nM [^35S]GTPγS, 0.25% fatty acid free BSA, and serially diluted hS1P1R agonist compound in 200 μL assay buffer (25 mM Tris-HCl PH 7.9, 100 mM NaCl, 3 mM MgCl2, and 0.2 mM EGTA). After one hour of incubation, 0.9 mg of WGA (Wheat Germ Agglutinin) SPA beads in 50 μL of assay buffer was added to each well. The SPA beads were spun down after an additional one hour incubation. The radioactivity of the bound GTPγS was counted by reading the assay plate using a MicroBeta.

S1P3 = target: T3, S1P3 (Homo sapiens, UniProt Q99500); experiment: S1P3 Tango β-arrestin recruitment assay in HEK293 cells (Assay 5); type: cell-based
T3 construct: host or cells: HEK293 (transient transfection)
Description: as §1
Assay 2a: Frozen HEK293 cells transiently transfected with receptor cDNAs for S1P1 (Invitrogen) are thawed and suspended in 10 mL of Pro293a-CDM culture medium (Invitrogen) supplemented with 4 mM L-Glutamine (Invitrogen), 1× Pen/Strep (100 units/mL penicillin and 100 μg/mL streptomycin, Invitrogen) and 0.1% fatty acid free BSA (Sigma-Aldrich). Cells are added to the wells of a 384-well white opaque bottom assay plate (PerkinElmer) at 3,000-6,000 cells per well and the plate is incubated for approximately 4 h in a 37° C. incubator. Test compounds are tested at maximum concentrations of 10 μM for the agonist assays. Compounds are diluted in DMSO (10 concentration points, 3-fold each) and added to the assay plate at a 1% final DMSO concentration. For each compound, there are duplicate assay plates and each assay plate has duplicate wells per concentration point. The plate is incubated at 37° C. for 30 min. The efficacy control is 5 μM S1P (Avanti). Following agonist addition, the assay plates are incubated in a 37° C. incubator for 16-18 h. Luciferase assay reagent is added and luminescence measured in an EnVision plate reader (PerkinElmer). To determine agonist activity, percent activity is calculated as [(test compound−background)/(positive control−background)*100], where background is the luminescence of the DMSO alone control and the positive control is the luminescence from cells incubated with the efficacy control 5 μM S1P. The percent activities are plotted against compound concentration to determine EC50 using XLFit (IDBS).
This assay was conducted using the procedures described in Assay 2a, replacing S1P1 with S1P3.

[2] = target: T4, hS1PR5 (hEdg8) membrane protein (Homo sapiens, UniProt Q9H228); experiment: hS1P5R GTPγS binding assay (Assay 4); type: biochemical
T4 construct: expressed in transfected cells; host or cells: CHO
Experimental: The hS1PR5 GTPγS binding assay was carried out at room temperature in 96-well non-binding surface assay plates. The reaction in each well contained 5 μg hS1PR5 (hEdg8) membrane protein from CHO cells expressing hS1PR5, 30 μM GDP, 0.1 nM [^35S]GTPγS, 0.25% fatty acid free BSA, and serially-diluted Compound of the Invention in 200 μL assay buffer (25 mM Tris-HCl PH 7.9, 100 mM NaCl, 3 mM MgCl2, and 0.2 mM EGTA). After one hour of incubation, 0.9 mg of WGA (Wheat Germ Agglutinin) SPA beads in 50 μL of assay buffer was added to each well. The SPA beads were spun down after an additional one hour incubation. The radioactivity of the bound GTPγS was counted by reading the assay plate using a MicroBeta.

[3] = * = rEC50 measured rather than EC50, read-out: Assay 5 rEC50 (relative EC50, cells marked *)

T2 sequence (P21453 whole entry): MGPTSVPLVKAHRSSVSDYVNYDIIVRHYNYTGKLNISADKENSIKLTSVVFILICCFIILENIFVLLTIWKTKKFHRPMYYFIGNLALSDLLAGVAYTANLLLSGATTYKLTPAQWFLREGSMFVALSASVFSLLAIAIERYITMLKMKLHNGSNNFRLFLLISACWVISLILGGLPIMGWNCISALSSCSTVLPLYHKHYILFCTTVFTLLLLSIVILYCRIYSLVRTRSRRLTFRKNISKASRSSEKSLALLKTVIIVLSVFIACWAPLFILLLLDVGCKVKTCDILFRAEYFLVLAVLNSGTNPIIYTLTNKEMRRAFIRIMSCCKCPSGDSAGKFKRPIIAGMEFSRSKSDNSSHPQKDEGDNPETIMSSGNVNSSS
T4 sequence (Q9H228 whole entry): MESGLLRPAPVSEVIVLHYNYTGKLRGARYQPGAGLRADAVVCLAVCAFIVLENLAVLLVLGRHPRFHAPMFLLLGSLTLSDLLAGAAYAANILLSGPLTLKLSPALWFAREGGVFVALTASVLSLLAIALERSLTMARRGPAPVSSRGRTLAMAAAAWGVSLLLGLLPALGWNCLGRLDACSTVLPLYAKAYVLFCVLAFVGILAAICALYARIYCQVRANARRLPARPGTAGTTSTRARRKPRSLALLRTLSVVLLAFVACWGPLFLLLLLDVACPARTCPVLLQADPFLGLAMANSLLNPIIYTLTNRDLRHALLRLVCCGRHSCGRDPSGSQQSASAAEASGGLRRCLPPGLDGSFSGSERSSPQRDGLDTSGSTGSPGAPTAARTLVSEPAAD
T3 sequence (P32121 whole entry): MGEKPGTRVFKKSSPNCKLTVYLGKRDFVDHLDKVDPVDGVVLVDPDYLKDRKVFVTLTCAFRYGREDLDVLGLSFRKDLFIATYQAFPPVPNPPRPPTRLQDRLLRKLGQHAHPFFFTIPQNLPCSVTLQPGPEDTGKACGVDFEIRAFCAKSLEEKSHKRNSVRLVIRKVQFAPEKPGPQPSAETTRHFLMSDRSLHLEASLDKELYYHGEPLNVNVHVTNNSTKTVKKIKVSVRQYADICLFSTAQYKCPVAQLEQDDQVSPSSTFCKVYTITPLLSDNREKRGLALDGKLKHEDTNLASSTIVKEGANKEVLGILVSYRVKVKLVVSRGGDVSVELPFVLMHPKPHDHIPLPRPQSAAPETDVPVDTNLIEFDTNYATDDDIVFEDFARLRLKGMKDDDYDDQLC
T3 sequence (Q99500 whole entry): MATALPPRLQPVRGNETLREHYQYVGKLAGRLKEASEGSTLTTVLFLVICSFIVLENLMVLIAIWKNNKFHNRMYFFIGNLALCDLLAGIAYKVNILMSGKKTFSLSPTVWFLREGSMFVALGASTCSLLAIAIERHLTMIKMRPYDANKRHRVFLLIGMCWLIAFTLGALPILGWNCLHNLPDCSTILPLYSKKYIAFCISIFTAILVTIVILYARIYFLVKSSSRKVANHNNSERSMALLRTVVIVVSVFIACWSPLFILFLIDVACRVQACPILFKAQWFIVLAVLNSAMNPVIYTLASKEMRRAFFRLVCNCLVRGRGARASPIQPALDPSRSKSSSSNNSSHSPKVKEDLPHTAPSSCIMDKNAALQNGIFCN
T1 sequence (P32121 whole entry): as the sequence (P32121 whole entry) above
T1 sequence (P21453 whole entry): as the sequence (P21453 whole entry) above

Row | EC50 (S1P1; read-out: Assay 2b EC50) [nM] | EC50 [1] [nM] | EC50 (S1P3; read-out: Assay 5 EC50) [nM] | EC50 [2] [nM] | EC50 (S1P1; * = rEC50 measured rather than EC50, read-out: Assay 2b rEC50 (relative EC50, cells marked *)) [nM] | EC50 (S1P3; [3]) [nM] | SMILES
1 | ≤ 10 | ≤ 10 | ≤ 250 | 50 to 250 |  |  | Cc1cc(-c2nnc(-c3cc(F)c(OC[C@@H](N)[C@H](C)O)cc3Cl)s2)cc(NC(C)C)n1 [Entry 98, (2S,3R)-3-amino-4-{[5-chloro-2-fluoro-4-(5-{2-methyl-6-[(1-methylethyl)amino]pyridin-4-yl}-1,3,4-thiadiazol-2-yl)phenyl]oxy}butan-2-ol]
2 | ≤ 10 | ≤ 10 | ≤ 250 | 10 to 50 |  |  | CC(C)Oc1ccc(-c2nnc(-c3cc(F)c(OC[C@@H](N)CO)cc3Cl)s2)cc1Br [Entry 11, (2S)-2-amino-3-{[4-(5-{3-bromo-4-[(1-methylethyl)oxy]phenyl}-1,3,4-thiadiazol-2-yl)-5-chloro-2-fluorophenyl]oxy}propan-1-ol]
3 | ≤ 10 | ≤ 10 | > 250 | 10 to 50 |  |  | CC(C)Oc1ccc(-c2nnc(-c3cc(F)c(OC[C@@H](N)[C@@H](C)O)cc3Cl)s2)cc1Cl [Entry 74, (2R,3R)-3-amino-4-{[5-chloro-4-(5-{3-chloro-4-[(1-methylethyl)oxy]phenyl}-1,3,4-thiadiazol-2-yl)-2-fluorophenyl]oxy}butan-2-ol]
4 |  | ≤ 10 | ≤ 250 | 10 to 50 | ≤ 10 |  | Cc1cc(-c2nnc(-c3cc(F)c(OC[C@H](N)[C@@H](C)OP(=O)(O)O)cc3Cl)s2)cc(NC(C)C)n1 [Entry 94, (1R,2S)-2-amino-3-{[5-chloro-2-fluoro-4-(5-{2-methyl-6-[(1-methylethyl)amino]pyridin-4-yl}-1,3,4-thiadiazol-2-yl)phenyl]oxy}-1-methylpropyl dihydrogen phosphate]
5 | 10 to 50 | 50 to 250 | > 10000 | 50 to 250 |  |  | CC(C)N(C)c1cc(-c2nnc(-c3cc(F)c(OC[C@H](N)CO)cc3Cl)s2)cc(Cl)n1 [Entry 21, (2R)-2-amino-3-{[5-chloro-4-(5-{2-chloro-6-[methyl(1-methylethyl)amino]pyridin-4-yl}-1,3,4-thiadiazol-2-yl)-2-fluorophenyl)oxy}propan-1-ol]
6 | 50 to 250 | ≤ 10 | > 10000 | 10 to 50 |  |  | CC(C)Oc1ccc(-c2nnc(-c3cc(Cl)c(OC[C@H](N)CO)c(Cl)c3)s2)cc1Cl [Entry 39, (2R)-2-amino-3-{[2,6-dichloro-4-(5-{3-chloro-4-[(1-methylethyl)oxy]phenyl}-1,3,4-thiadiazol-2-yl)phenyl]oxy}propan-1-ol]
7 | ≤ 10 | ≤ 10 |  | ≤ 10 |  | > 250 | CC(C)Nc1ccc(-c2nnc(-c3cc(F)c(OC[C@H](N)COP(=O)(O)O)cc3Cl)s2)cn1 [Entry 52, (2S)-2-amino-3-{[5-chloro-2-fluoro-4-(5-{6-[(1-methylethyl)amino]pyridin-3-yl}-1,3,4-thiadiazol-2-yl)phenyl]oxy}propyl dihydrogen phosphate]
8 | ≤ 10 | ≤ 10 | > 250 | 50 to 250 |  |  | Cc1cc(-c2nnc(-c3cc(F)c(OC[C@H](N)[C@H](C)OP(=O)(O)O)cc3Cl)s2)cc(NC(C)C)n1 [Entry 95, (1S,2S)-2-amino-3-{[5-chloro-2-fluoro-4-(5-{2-methyl-6-[(1-methylethyl)amino]pyridin-4-yl}-1,3,4-thiadiazol-2-yl)phenyl]oxy}-1-methylpropyl dihydrogen phosphate]
9 | 10 to 50 | ≤ 10 | > 250 | 10 to 50 |  |  | Cc1cc(-c2nnc(-c3cc(F)c(OC[C@H](N)[C@H](C)O)cc3Cl)s2)cc(NC(C)C)n1 [Entry 63, (2S,3S)-3-amino-4-{[5-chloro-2-fluoro-4-(5-{2-methyl-6-[(1-methylethyl)amino]pyridin-4-yl}-1,3,4-thiadiazol-2-yl)phenyl]oxy}butan-2-ol]
10 | ≤ 10 | ≤ 10 | ≤ 250 | ≤ 10 |  |  | CC(C)Oc1ccc(-c2nnc(-c3cc(F)c(OC[C@H](N)[C@@H](C)OP(=O)(O)O)cc3Cl)s2)cc1Cl [Entry 51, (1R,2S)-2-amino-3-{[5-chloro-4-(5-{3-chloro-4-[(1-methylethyl)oxy]phenyl}-1,3,4-thiadiazol-2-yl)-2-fluorophenyl]oxy}-1-methylpropyl dihydrogen phosphate]
11 | 50 to 250 | 250 to 2800 | > 10000 | 250 to 2800 |  |  | CC(C)Oc1ccc(-c2nnc(-c3cc(F)c(OC[C@H](N)CO)cc3Cl)s2)cn1 [Entry 35, (2R)-2-amino-3-{[5-chloro-2-fluoro-4-(5-{6-[(1-methylethyl)oxy]pyridin-3-yl}-1,3,4-thiadiazol-2-yl)phenyl]oxy}propan-1-ol]
12 | ≤ 10 | ≤ 10 |  | 10 to 50 |  | > 250 | CC(C)Oc1ccc(-c2nnc(-c3cc(F)c(OC[C@@H](N)[C@@H](C)O)cc3Cl)s2)cc1C#N [Entry 86, 5-[5-(4-{[(2R,3R)-2-amino-3-hydroxybutyl]oxy}-2-chloro-5-fluorophenyl)-1,3,4-thiadiazol-2-yl]-2-[(1-methylethyl)oxy]benzonitrile]
13 | 250 to 2800 | 50 to 250 | > 10000 | 250 to 2800 |  |  | CC(C)Oc1ncc(-c2nnc(-c3cc(F)c(OC[C@H](N)CO)cc3Cl)s2)cc1Cl [Entry 20, (2R)-2-amino-3-{[5-chloro-4-(5-{5-chloro-6-[(1-methylethyl)oxy]pyridin-3-yl}-1,3,4-thiadiazol-2-yl)-2-fluorophenyl]oxy}propan-1-ol]
14 | ≤ 10 | ≤ 10 | ≤ 250 | ≤ 10 |  |  | CC(C)Oc1ccc(-c2nnc(-c3cc(F)c(OC[C@@H](N)[C@@H](C)OP(=O)(O)O)cc3Cl)s2)cc1Cl [Entry 70, (1R,2R)-2-amino-3-{[5-chloro-4-(5-{3-chloro-4-[(1-methylethyl)oxy]phenyl}-1,3,4-thiadiazol-2-yl)-2-fluorophenyl]oxy}-1-methylpropyl dihydrogen phosphate]
